The values below come from ChEMBL document CHEMBL3860026, “Depsidones from Lichens as Natural Product Inhibitors of M-Phase Phosphoprotein 1, a Human Kinesin Required for Cytokinesis” (J Nat Prod, 2016).

pEC50, pIC50: −log10 of the molar value. ≈ marks a conversion by molar mass, not a printed value. Calls of active or inactive are those of the source. The calls are words filed in the database; no cut-off is given here.

The nature of data set [1]: Cytotoxicity against human UM-UC-3 cells assessed as growth inhibition after 72 hrs by Alamar Blue assay. The conditions noted are these: UMUC3, 72 h. Type of data set: functional, cell-based. Background: Resazurin is reduced to fluorescent resorufin, in cell work by metabolically active cells.
The nature of data set [2]: Apparent passive permeability of the compound at 10 uM after 5 hrs by PAMPA. Format: ADME. The note with it: pampa, 5 h, 10 µM.
The target of data set [3] is T1, Kinesin-like protein KIF9 (Homo sapiens) (UniProt Q9HAQ2).
T1 sequence (whole entry): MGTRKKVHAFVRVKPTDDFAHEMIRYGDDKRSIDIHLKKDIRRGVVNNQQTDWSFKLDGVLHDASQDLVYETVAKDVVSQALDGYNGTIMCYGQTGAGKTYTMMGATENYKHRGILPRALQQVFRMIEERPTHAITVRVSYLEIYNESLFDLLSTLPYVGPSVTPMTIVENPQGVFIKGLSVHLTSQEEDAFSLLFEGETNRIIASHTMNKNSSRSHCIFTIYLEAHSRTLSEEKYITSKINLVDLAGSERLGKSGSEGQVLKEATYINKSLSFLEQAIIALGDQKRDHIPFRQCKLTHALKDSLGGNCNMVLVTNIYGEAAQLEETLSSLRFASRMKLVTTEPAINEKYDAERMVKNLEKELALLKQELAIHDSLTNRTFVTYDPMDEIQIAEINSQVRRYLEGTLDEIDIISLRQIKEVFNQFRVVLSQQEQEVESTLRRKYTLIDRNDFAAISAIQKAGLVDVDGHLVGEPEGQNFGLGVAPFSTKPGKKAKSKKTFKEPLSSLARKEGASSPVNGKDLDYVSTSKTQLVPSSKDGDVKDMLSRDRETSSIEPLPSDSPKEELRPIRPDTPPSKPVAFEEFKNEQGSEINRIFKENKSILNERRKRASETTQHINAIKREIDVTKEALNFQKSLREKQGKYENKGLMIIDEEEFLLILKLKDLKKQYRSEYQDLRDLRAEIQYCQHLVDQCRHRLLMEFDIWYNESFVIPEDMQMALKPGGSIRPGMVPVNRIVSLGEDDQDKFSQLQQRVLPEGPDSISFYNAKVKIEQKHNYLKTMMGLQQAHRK
The data set can be described thus: Inhibition of microtubule-stimulated ATPase activity of human Kif9 at 200 uM by pyruvate kinase/lactate dehydrogenase-linked assay.

Data set [4] can be described thus: Half life in human liver microsomes at 3 uM by LC-MS/MS method. Type of data set: ADME. A general note: Liver microsomes are a subcellular fraction often used to study metabolism.
A short description of data set [5]: Solubility of the compound in phosphate buffered saline at pH 6 after 2 hrs by turbidimetric method. Format: physicochemical.
Data set [6] in a line: Solubility of the compound in phosphate buffered saline at pH 7.4 after 2 hrs by turbidimetric method. Format: physicochemical.
The target in data set [7] is T2, Kinesin-like protein KIF20B (Homo sapiens, UniProt Q96Q89). Briefly: Inhibition of basal ATPase activity of N-terminal His6-tagged/SUMO-fused human MPP1 motor domain (2 to 477 residues) expressed in Escherichia coli BL21 CodonPlus by pyruvate kinase/lactate dehydrogenase-linked assay.
T2 sequence (Q96Q89 whole entry, the tested form may be a part): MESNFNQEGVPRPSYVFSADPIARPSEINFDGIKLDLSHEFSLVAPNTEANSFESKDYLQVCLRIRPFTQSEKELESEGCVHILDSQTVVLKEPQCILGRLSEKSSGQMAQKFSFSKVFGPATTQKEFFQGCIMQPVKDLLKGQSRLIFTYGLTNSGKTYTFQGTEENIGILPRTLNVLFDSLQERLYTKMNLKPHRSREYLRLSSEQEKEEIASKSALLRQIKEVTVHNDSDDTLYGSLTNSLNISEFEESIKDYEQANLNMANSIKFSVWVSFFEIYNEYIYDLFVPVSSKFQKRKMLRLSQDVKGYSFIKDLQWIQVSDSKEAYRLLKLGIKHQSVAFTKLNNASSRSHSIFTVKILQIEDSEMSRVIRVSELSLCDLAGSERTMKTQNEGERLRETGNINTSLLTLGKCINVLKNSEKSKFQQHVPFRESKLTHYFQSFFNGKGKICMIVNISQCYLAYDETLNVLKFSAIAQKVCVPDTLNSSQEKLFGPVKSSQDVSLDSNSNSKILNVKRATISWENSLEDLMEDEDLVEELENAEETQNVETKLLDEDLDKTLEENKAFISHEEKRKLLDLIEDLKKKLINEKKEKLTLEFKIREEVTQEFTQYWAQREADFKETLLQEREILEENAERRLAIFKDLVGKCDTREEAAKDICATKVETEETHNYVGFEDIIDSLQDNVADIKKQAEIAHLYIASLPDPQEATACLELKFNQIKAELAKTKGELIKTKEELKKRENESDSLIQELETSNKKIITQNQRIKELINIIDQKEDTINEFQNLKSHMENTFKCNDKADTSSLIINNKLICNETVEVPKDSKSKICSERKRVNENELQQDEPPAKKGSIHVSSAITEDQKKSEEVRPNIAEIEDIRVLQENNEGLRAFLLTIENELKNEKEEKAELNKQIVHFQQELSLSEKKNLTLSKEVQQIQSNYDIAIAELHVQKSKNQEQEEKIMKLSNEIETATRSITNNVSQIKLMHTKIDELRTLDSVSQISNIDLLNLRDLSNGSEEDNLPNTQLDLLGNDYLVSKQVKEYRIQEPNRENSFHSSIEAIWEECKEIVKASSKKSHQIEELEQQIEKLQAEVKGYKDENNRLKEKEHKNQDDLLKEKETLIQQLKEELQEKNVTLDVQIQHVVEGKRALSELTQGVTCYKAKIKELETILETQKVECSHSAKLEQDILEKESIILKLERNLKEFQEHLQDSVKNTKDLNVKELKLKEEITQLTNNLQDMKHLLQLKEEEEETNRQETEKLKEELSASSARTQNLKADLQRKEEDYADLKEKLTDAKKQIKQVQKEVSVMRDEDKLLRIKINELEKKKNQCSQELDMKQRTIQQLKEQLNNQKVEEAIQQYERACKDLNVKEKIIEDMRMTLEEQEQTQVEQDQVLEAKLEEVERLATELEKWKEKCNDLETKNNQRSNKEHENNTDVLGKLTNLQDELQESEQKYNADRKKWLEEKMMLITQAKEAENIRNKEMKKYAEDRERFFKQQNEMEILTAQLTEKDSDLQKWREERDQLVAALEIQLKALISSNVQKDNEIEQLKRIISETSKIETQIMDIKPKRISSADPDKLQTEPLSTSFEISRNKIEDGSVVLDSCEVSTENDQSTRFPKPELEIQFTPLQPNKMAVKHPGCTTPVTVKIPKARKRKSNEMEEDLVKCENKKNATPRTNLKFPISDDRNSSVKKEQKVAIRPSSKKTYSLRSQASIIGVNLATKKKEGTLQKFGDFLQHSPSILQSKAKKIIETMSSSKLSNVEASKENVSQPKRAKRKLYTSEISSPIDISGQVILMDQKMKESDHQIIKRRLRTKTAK
Data set [8] is described as follows: Intrinsic clearance in mouse liver microsomes assessed per mg of protein at 3 uM after 5 to 60 mins by LC-MS/MS method. The conditions noted are these: read-out: CLH. Format: ADME.
For data set [9], the target named is T3, Kinesin-like protein KIF23 (Homo sapiens) (UniProt Q02241).
T3 sequence (whole entry): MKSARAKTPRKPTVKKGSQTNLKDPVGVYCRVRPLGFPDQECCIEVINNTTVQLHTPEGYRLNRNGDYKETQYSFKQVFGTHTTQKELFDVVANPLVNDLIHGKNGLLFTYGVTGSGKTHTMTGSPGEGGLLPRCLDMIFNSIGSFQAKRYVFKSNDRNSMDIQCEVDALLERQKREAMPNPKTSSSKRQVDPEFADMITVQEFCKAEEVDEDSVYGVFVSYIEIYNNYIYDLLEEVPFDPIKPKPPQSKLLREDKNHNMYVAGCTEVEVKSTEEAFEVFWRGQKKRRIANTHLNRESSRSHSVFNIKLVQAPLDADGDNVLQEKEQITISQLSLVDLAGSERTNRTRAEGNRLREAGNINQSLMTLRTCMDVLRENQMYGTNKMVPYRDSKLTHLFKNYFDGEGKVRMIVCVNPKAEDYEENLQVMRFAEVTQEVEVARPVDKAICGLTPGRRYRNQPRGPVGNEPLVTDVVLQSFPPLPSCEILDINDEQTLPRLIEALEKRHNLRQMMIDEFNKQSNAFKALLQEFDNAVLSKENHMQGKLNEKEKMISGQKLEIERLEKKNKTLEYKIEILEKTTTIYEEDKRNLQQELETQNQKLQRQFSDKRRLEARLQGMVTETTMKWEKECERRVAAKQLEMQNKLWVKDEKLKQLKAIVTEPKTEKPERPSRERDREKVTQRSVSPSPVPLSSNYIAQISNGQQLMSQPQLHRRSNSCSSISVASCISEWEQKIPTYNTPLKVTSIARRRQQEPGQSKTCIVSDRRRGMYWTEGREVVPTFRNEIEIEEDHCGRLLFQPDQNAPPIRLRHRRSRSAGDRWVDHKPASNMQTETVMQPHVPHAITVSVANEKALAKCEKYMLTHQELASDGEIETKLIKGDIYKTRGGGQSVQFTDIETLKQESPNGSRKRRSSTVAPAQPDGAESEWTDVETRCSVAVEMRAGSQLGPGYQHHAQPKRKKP
Briefly: Inhibition of microtubule-stimulated ATPase activity of human MKLP-1 at 200 uM by pyruvate kinase/lactate dehydrogenase-linked assay.

Data set [10] can be described thus: Cytotoxicity against human J82 cells assessed as growth inhibition after 72 hrs by Alamar Blue assay. Format: functional, cell-based. The conditions noted are these: J82, 72 h.
A short description of data set [11]: Chemical stability of the compound at 5 uM after 15 to 120 mins by LC-MS/MS method. Type of data set: physicochemical.
The target in data set [12] is T1, Kinesin-like protein KIF9 (Homo sapiens). The data set can be described thus: Inhibition of basal ATPase activity of human Kif9 at 200 uM by pyruvate kinase/lactate dehydrogenase-linked assay.
Data set [13] is described as follows: Cytotoxicity against human HCT116 cells assessed as growth inhibition after 72 hrs by Alamar Blue assay. Type of data set: functional, cell-based. The note with it: HCT-116, 72 h.
Data set [14] can be described thus: Solubility of the compound in phosphate buffered saline at pH 2 after 2 hrs by turbidimetric method. Type of data set: physicochemical.
Data set [15] is described as follows: Intrinsic clearance in human liver microsomes assessed per mg of protein at 3 uM after 5 to 60 mins by LC-MS/MS method. The conditions noted are these: read-out: CLH. Format: ADME.
Data set [16] addresses T2, Kinesin-like protein KIF20B. Briefly: Inhibition of microtubule-stimulated ATPase activity of N-terminal His6-tagged/SUMO-fused human MPP1 motor domain (57 to 491 residues) expressed in Escherichia coli BL21 CodonPlus by pyruvate kinase/lactate dehydrogenase-linked assay.
A short description of data set [17]: Cytotoxicity against human BxPC3 cells assessed as growth inhibition after 72 hrs by Alamar Blue assay. Format: functional, cell-based. The note with it: BXPC-3, 72 h.
Data set [18] is described as follows: n-octanol-buffer distribution co-efficient, log D of the compound at pH 7.4 by shake flask method. Type of data set: physicochemical.
Data set [19] concerns the target Centromere-associated protein E (Homo sapiens, UniProt Q02224). The data set can be described thus: Inhibition of basal ATPase activity of human CENP-E by pyruvate kinase/lactate dehydrogenase-linked assay.
Data set [20] addresses T2, Kinesin-like protein KIF20B. The data set can be described thus: Inhibition of basal ATPase activity of N-terminal His6-tagged/SUMO-fused human MPP1 motor domain (57 to 491 residues) expressed in Escherichia coli BL21 CodonPlus in presence of 0.1% Tween-20 by pyruvate kinase/lactate dehydrogenase-linked assay.

Centromere-associated protein E, sequence (Q02224 whole entry, the tested form may be a part): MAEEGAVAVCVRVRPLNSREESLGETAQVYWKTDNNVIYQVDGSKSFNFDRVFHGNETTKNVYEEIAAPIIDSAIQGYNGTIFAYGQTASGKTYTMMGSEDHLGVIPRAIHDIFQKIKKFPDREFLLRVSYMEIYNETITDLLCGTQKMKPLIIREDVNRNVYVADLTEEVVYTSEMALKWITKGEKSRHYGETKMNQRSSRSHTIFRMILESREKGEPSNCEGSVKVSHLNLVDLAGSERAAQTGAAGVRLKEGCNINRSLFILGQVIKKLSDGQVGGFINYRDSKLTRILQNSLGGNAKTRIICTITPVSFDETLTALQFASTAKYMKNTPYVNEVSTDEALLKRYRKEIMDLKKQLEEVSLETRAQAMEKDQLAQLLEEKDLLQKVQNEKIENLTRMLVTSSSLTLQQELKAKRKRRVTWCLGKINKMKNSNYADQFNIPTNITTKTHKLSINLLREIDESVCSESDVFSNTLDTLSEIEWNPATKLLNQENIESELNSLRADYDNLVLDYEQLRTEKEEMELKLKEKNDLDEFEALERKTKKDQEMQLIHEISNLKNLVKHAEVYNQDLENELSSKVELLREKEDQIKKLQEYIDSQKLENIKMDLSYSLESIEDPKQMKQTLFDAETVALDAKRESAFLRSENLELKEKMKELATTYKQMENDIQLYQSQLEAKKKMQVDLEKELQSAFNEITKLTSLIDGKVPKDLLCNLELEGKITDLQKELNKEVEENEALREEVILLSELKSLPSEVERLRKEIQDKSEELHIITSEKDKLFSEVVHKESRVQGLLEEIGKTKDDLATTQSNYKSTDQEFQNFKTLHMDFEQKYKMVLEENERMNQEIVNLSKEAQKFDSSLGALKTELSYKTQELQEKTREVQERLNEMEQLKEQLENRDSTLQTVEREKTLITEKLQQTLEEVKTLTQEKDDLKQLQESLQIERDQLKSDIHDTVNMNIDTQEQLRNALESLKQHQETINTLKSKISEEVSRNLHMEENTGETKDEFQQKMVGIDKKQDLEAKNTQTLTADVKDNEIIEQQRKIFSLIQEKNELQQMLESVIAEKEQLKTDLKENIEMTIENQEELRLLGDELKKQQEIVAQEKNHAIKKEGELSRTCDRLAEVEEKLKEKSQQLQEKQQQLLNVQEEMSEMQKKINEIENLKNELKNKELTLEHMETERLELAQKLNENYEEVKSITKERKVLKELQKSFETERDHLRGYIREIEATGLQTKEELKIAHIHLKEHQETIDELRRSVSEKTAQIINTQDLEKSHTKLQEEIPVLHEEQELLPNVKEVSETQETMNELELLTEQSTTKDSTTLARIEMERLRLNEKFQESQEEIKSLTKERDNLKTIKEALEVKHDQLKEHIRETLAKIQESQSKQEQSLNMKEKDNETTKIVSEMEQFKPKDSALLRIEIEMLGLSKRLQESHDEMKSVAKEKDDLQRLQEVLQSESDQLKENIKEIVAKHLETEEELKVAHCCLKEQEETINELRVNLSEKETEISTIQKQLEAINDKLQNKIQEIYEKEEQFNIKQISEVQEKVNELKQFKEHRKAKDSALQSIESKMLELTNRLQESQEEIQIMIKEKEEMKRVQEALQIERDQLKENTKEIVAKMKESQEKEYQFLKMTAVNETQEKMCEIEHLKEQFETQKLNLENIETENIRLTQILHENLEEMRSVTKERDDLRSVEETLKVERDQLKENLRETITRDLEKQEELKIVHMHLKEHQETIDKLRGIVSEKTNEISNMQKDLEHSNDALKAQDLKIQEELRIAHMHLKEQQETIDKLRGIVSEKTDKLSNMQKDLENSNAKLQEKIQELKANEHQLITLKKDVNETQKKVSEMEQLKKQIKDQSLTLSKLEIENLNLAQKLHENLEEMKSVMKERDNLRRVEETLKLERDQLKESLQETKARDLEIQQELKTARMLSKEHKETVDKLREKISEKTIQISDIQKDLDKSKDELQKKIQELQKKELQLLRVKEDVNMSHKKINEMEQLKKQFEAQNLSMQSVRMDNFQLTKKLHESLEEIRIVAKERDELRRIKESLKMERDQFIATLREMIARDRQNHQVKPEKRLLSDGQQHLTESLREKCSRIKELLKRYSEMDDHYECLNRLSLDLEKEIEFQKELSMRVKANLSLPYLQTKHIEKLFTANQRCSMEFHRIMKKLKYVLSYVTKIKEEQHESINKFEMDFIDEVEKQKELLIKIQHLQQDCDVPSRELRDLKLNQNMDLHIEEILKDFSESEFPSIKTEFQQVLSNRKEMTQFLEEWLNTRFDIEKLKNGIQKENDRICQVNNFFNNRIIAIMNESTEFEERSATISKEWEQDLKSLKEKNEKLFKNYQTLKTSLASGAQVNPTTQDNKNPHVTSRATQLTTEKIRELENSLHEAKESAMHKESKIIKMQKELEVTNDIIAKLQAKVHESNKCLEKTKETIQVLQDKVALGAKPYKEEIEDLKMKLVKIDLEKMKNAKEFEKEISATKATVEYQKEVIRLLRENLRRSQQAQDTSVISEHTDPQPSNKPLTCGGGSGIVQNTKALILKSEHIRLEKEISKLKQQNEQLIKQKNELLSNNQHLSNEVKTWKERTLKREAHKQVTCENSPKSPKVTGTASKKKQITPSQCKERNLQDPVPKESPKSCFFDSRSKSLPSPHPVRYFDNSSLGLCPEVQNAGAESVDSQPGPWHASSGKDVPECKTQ

On to `CCCCCC(=O)Cc1cc(O)cc2c1C(=O)Oc1cc(O)c(C(=O)O)c(CCCCC)c1O2` [PHYSODIC ACID], for which the pEC50 (in general, the EC50 on a negative log10 scale, so that one unit is a factor of ten) in [1] was 4.50; in data set [10] it was 4.42; in data set [13], less than 4.30; in [17] it was 4.43. Further, in [2], the Papp result is “Impermeable”. For the same compound, the inhibition (as a rule, the relative decrease from the control value, in per cent) in [3] was found to be 50%; in data set [9] it was 40%; in data set [12] it was 40%. For the same compound, in [4], the half-life (as a rule, how long it takes for the measured level to halve) at 3 µM was 4.5 min. The kinetic solubility – broadly, solubility judged after dilution from a stock solution rather than from solid – at 2 h is 65 µM (≈ 30.6 µg/mL) in data set [5], more than 100 µM in data set [6] and 3.75 µM (≈ 1.76 µg/mL) in data set [14]. For the same compound, the pIC50 (commonly −log10 of the IC50, conventionally taken in molar units) was 4.98 in [7], 5.24 in data set [16] and 4.53 in [19]. Further, the Imax in data set [7] and in [16] was 90% throughout. The results for the microsomal CLint at 3 µM in [8] and in [15] were 61.6 µL/min/mg and 310 µL/min/mg, respectively. Further, the Stability result in data set [11] is on record as “Stable”. The logD – broadly, lipophilicity at a set pH, counting ionised and neutral species – in data set [18] turned out to be 3. For the same compound, the inhibition entry in data set [20] was “Active”.
